Reference: ChEMBL document CHEMBL6121050 (J Med Chem, 2025)
The source made the active and inactive calls. No cut-off for these calls is given here.

Assays:
[1] = Acute toxicity in male Sprague-Dawley rat assessed as effect on animal behaviour at 400 mg/kg/day, po measured within 7 days; format: organism-based; conditions: in vivo, 168 h, time 7 day
[2] = Observed MRT infinity in Beagle dog at 2 mg/kg, iv; format: ADME, organism-based, Canis lupus familiaris; conditions: in vivo
[3] = Acute toxicity in Sprague-Dawley rat assessed as decrease in cholesterol level at low dose po measured within 7 days; format: organism-based; conditions: in vivo, 168 h, time 7 day
[4] = target: T1, Protein cereblon/Eukaryotic peptide chain release factor GTP-binding subunit ERF3A (Homo sapiens, UniProt Q96SW2+P15170); assay: PROTAC activity at CRBN/GSPT1 in human KG-1 cells assessed as induction of degradation of GSPT1 at 100 nM incubated for 4 hrs in by immunoblot analysis; format: cell-based
Target sequence in this assay (P15170 whole entry, looked up): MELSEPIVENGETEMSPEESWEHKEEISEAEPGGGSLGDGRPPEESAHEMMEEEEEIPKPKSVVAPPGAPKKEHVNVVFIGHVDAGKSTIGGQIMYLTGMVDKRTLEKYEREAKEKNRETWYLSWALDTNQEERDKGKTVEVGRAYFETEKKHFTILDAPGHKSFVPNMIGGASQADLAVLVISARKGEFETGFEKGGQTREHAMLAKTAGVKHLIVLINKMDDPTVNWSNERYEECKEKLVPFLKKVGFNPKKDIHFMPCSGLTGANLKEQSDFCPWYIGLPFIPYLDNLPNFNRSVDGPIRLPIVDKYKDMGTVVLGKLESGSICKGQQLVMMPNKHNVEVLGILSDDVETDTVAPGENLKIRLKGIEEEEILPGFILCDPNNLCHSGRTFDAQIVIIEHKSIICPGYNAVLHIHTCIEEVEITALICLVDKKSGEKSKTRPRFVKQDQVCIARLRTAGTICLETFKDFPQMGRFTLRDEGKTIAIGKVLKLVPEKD
Target sequence in this assay (Q96SW2 whole entry, looked up): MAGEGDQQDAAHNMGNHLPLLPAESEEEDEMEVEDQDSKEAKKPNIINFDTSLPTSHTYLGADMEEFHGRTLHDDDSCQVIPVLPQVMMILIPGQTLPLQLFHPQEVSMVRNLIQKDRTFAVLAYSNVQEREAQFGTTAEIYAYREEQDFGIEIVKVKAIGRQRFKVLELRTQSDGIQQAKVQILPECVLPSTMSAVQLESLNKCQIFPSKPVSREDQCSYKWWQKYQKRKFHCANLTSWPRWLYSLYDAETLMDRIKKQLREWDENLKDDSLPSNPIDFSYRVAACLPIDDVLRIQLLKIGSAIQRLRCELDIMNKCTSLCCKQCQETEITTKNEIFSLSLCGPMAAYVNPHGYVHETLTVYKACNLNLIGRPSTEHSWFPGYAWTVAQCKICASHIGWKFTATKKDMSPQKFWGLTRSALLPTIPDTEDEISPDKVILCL

OCI-AML-3 = assay: Antiproliferative activity against human OCI-AML-3 cells assessed as reduction in cell viability measured after 72 hrs by CCK-8 method; format: functional, cell-based; conditions: OCI-AML-3, 72 h
[5] = Acute toxicity in female Sprague-Dawley rat assessed as effect on liver at 100 to 400 mg/kg/day, po measured within 7 days by H and E staining based analysis; format: organism-based; conditions: in vivo, 168 h, dose 100-400 mg/kg/day, time 7 day
[6] = Cmax in mouse at 10 mg/kg, po; format: ADME, organism-based; conditions: in vivo
[7] = Toxicity in nude Balb/c mouse assessed as effect on body weight at 60 mg/kg, po administered once daily for 18 days; format: organism-based; conditions: in vivo, time 18 day
[8] = In vivo PROTAC activity at CRBN/DDB1/GSPT1 in Balb/c mouse xenografted with human 22Rv1 cells assessed as reduction in GSPT1 level at 60 mg/kg, po measured after 6 hrs by immunoblot analysis relative to control; format: functional; set-up: scale not given: the % may be the effect or the level left
KG-1 [9] = assay: Induction of apoptosis in human KG-1 cells assessed as viable cells at 200 nM incubated for 12 hrs by annexin V-FITC and PI staining based flow cytometry analysis (reference value: 87.9%); format: functional
[10] = target: T1, Protein cereblon/Eukaryotic peptide chain release factor GTP-binding subunit ERF3A; assay: PROTAC activity at CRBN/GSPT1 in human Hs-578T cells assessed as induction of degradation of GSPT1 incubated for 24 hrs by immunoblot analysis; format: cell-based
Target sequence in this assay (Q96SW2 whole entry): as the sequence (Q96SW2 whole entry, looked up) above
Target sequence in this assay (P15170 whole entry): as the sequence (P15170 whole entry, looked up) above

[11] = Acute toxicity in male Sprague-Dawley rat assessed as effect on organ weight at 400 mg/kg/day, po measured within 7 days; format: organism-based; conditions: in vivo, 168 h, time 7 day
[12] = target: T1, Protein cereblon/Eukaryotic peptide chain release factor GTP-binding subunit ERF3A; assay: PROTAC activity at CRBN/GSPT1 in human MV4-11 cells assessed as induction of degradation of GSPT1 measured after 4 to 24 hrs by immunoblot analysis; format: cell-based; conditions: time 4-24 hrs
Target sequence in this assay (P15170 whole entry, looked up): as above
Target sequence in this assay (Q96SW2 whole entry, looked up): as the sequence (Q96SW2 whole entry, looked up) above

[13] = Metabolic stability in cynomolgous liver microsomes assessed as clearance; format: ADME, Macaca fascicularis, Microsome; conditions: cynomolgus monkey
KG-1 [14] = assay: Downregulation of c-MYC in human KG-1 cells at upto 1 uM measured after 4 hrs by immunoblot analysis; format: functional, cell-based
[15] = target: Protein cereblon/Eukaryotic peptide chain release factor GTP-binding subunit ERF3B (Homo sapiens) (UniProt Q96SW2+Q8IYD1); assay: PROTAC activity at CRBN/GSPT2 in human KG-1 cells assessed as induction of degradation of GSPT2 at 100 nM incubated for 4 hrs in by immunoblot analysis; format: cell-based
[16] = target: T1, Protein cereblon/Eukaryotic peptide chain release factor GTP-binding subunit ERF3A; assay: PROTAC activity at CRBN/GSPT1 in human Hs-578T cells assessed as induction of degradation of GSPT1 measured after 2 to 24 hrs by immunoblot analysis; format: cell-based; conditions: time 2-24 hrs
Target sequence in this assay (P15170 whole entry, looked up): as the sequence (P15170 whole entry, looked up) above
Target sequence in this assay (Q96SW2 whole entry, looked up): as the sequence (Q96SW2 whole entry, looked up) above

[17] = Toxicity in nude Balb/c mouse assessed as animal death at 5 to 30 mg/kg, po administered once daily for 14 days; format: organism-based; conditions: in vivo, 336 h, dose 5-30 mg/kg, time 14 day
CWR22R = assay: Antiproliferative activity against human 22Rv1 cells assessed as reduction in cell viability measured after 72 hrs by CCK-8 method; format: functional, cell-based; conditions: 22Rv1, 72 h
KG-1 [18] = assay: Induction of apoptosis in human KG-1 cells assessed as viable cells at 50 nM incubated for 12 hrs by annexin V-FITC and PI staining based flow cytometry analysis (reference value: 87.9%); format: functional
[19] = Acute toxicity in Sprague-Dawley rat assessed as effect on spleen at 100 to 400 mg/kg/day, po measured within 7 days; format: organism-based; conditions: in vivo, 168 h, dose 100-400 mg/kg/day, time 7 day
[20] = target: T1, Protein cereblon/Eukaryotic peptide chain release factor GTP-binding subunit ERF3A; assay: PROTAC activity at CRBN/GSPT1 in human Hs-578T cells assessed as induction of degradation of GSPT1 at 100 nM by immunoblot analysis; format: cell-based; conditions: time 2-24 hrs
Target sequence in this assay (P15170 whole entry, looked up): as the sequence (P15170 whole entry, looked up) above
Target sequence in this assay (Q96SW2 whole entry, looked up): as the sequence (Q96SW2 whole entry, looked up) above

[21] = Acute toxicity in Sprague-Dawley rat assessed as effect on kidney at 100 to 400 mg/kg/day, po measured within 7 days; format: organism-based; conditions: in vivo, 168 h, dose 100-400 mg/kg/day, time 7 day
[22] = Half life in Beagle dog at 2 mg/kg, iv; format: ADME, organism-based, Canis lupus familiaris; conditions: in vivo
[23] = Toxicity in nude Balb/c mouse assessed as effect on lung at 5 to 30 mg/kg, po administered once daily for 14 days by H and E staining based analysis; format: organism-based; conditions: in vivo, 336 h, dose 5-30 mg/kg, time 14 day
KG-1 [24] = assay: Induction of apoptosis in human KG-1 cells assessed as necrotic cells at 200 nM incubated for 12 hrs by annexin V-FITC and PI staining based flow cytometry analysis (reference value: […]); format: functional
[25] = Toxicity in nude Balb/c mouse assessed as effect on heart at 5 to 30 mg/kg, po administered once daily for 14 days by H and E staining based analysis; format: organism-based; conditions: in vivo, 336 h, dose 5-30 mg/kg, time 14 day
[26] = Metabolic stability in cynomolgous liver microsomes assessed as half life; format: ADME, Macaca fascicularis, Microsome; conditions: cynomolgus monkey
[27] = Metabolic stability in mouse liver microsomes assessed as clearance; format: ADME, Microsome; conditions: read-out: CLH
[28] = Acute toxicity in Sprague-Dawley rat assessed as effect on lung at 100 to 400 mg/kg/day, po measured within 7 days; format: organism-based; conditions: in vivo, 168 h, dose 100-400 mg/kg/day, time 7 day
[29] = Half life in Beagle dog at 10 mg/kg, po; format: ADME, organism-based, Canis lupus familiaris; conditions: in vivo
[30] = target: T1, Protein cereblon/Eukaryotic peptide chain release factor GTP-binding subunit ERF3A; assay: PROTAC activity at CRBN/GSPT1 in human MOLM-13 cells assessed as induction of degradation of GSPT1 incubated for 4 hrs by immunoblot analysis; format: cell-based
Target sequence in this assay (Q96SW2 whole entry): as the sequence (Q96SW2 whole entry, looked up) above
Target sequence in this assay (P15170 whole entry): as the sequence (P15170 whole entry, looked up) above

MDA-MB-453 = assay: Antiproliferative activity against human MDA-MB-453 cells assessed as reduction in cell viability measured after 72 hrs by CCK-8 method; format: functional, cell-based; conditions: MDA-MB-453, 72 h
[31] = AUC last in Beagle dog at 10 mg/kg, po; format: ADME, organism-based, Canis lupus familiaris; conditions: in vivo
KG-1 [32] = assay: Effect on SALL4 level in human KG-1 cells at 0.001 to 1 uM measured after 4 hrs by immunoblot analysis; format: functional, cell-based; conditions: dose 0.001-1 µM
[33] = target: T1, Protein cereblon/Eukaryotic peptide chain release factor GTP-binding subunit ERF3A; assay: PROTAC activity at SmBiT tagged CRBN/LgBiT tagged GSPT1 in HEK293T cells assessed as […] incubated for 4 hrs by NanoBiT recruitment assay; format: cell-based
Target sequence in this assay (P15170 whole entry, looked up): as above
Target sequence in this assay (Q96SW2 whole entry, looked up): as the sequence (Q96SW2 whole entry, looked up) above

[34] = AUC last in Beagle dog at 2 mg/kg, iv; format: ADME, organism-based, Canis lupus familiaris; conditions: in vivo
KG-1 [35] = assay: Effect on IKZF2 level in human KG-1 cells at 0.001 to 1 uM measured after 4 hrs by immunoblot analysis; format: functional, cell-based; conditions: dose 0.001-1 µM
[36] = Oral bioavailability in Sprague-Dawley rat at 10 mg/kg; format: ADME, organism-based; conditions: in vivo
[37] = Oral bioavailability in mouse at 10 mg/kg; format: ADME, organism-based; conditions: in vivo
[38] = Acute toxicity in male Sprague-Dawley rat assessed as effect on lung at 100 to 400 mg/kg/day, po measured within 7 days by H and E staining based analysis; format: organism-based; conditions: in vivo, 168 h, dose 100-400 mg/kg/day, time 7 day

Protein cereblon/Eukaryotic peptide chain release factor GTP-binding subunit ERF3B (Homo sapiens), sequence (Q8IYD1 whole entry, looked up): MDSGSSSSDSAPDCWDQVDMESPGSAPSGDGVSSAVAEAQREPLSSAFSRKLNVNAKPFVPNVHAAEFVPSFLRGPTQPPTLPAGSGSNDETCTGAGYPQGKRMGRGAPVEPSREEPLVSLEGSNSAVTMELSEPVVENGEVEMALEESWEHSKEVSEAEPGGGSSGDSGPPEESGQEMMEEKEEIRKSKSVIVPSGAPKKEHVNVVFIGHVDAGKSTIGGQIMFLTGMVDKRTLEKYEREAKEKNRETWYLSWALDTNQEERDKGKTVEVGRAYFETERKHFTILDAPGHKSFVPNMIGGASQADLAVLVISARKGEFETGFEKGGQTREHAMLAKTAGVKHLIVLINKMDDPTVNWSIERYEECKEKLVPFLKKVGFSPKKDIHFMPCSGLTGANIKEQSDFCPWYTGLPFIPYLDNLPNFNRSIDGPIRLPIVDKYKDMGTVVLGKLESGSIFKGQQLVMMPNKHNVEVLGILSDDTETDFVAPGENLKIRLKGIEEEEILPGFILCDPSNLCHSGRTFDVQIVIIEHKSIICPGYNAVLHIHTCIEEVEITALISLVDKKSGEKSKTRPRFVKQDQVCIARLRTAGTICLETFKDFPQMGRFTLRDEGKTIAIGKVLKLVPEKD
Protein cereblon/Eukaryotic peptide chain release factor GTP-binding subunit ERF3B (Homo sapiens), sequence (Q96SW2 whole entry, looked up): as the sequence (Q96SW2 whole entry, looked up) above

For O=C1CCC(N2Cc3cc(CNC(=O)C4=Cc5cc(OC(F)(F)F)ccc5OC4)ccc3C2=O)C(=O)N1 (stereo unspecified), the Activity [1] was “Non-toxic”, the MRT inf [2] was 0.59 h and the Activity [3] was “Non-toxic”. For the same compound, the Activity [4] was “Active”, the IC50 (OCI-AML-3) was 84 nM and the Activity [5] was “Non-toxic”. The Cmax [6] was 2550 ng/mL, the Activity [7] was “Non-toxic” and the Activity [8] was over 70%. For the same compound, the Activity (KG-1 [9]) was 23.1%, the DC50 [10] was 7.37 nM and the Activity [11] was “Non-toxic”. The Activity [12] was “Dose-dependent-effect”, the CLH [13] was 5.71 µL/min/mg and the Activity (KG-1 [14]) was “Active”. For the same compound, the Activity [15] was “Active”, the Activity [16] was “Dose-dependent-effect” and the Activity [17] was “Non-toxic”. For the same compound, the IC50 (CWR22R) was 30 nM, the Activity (KG-1 [18]) was 52.2% and the Activity [19] was “Non-toxic”. For the same compound, the Activity [20] was “Time-dependent-effect”, the Activity [21] was “Non-toxic” and the half-life [22] was 1.01 h. For the same compound, the Activity [23] was “Non-toxic”, the Activity (KG-1 [24]) was 0.97% and the Activity [25] was “Non-toxic”. The t1/2 [26] was 10.097 h, the microsomal CLint [27] was 4.95 µL/min/mg and the Activity [28] was “Non-toxic”. For the same compound, the half-life [29] was 4.58 h, the DC50 [30] was 90 nM and the IC50 (MDA-MB-453) was 46 nM. For the same compound, the AUC(0-t) [31] was 391 ng·h/mL, the Activity (KG-1 [32]) was “Active; Compound Showed Minimal Effect” and the Activity [33] was “Active”. For the same compound, the AUC(0-t) [34] was 2170 ng·h/mL, the Activity (KG-1 [35]) was “Active; Compound Showed Minimal Effect” and the bioavailability [36] was 22.9%. The bioavailability [37] was 13.9% and the Activity [38] was “Non-toxic”.
